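1) Cells in 96-well plates. 2) Compound, 48 h, 5 concentrations. 3) Linear interpolation between surrounding doses. 4) Unreached endpoint = highest concentration. GI50 = concentration required for 50% inhibition of growth.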 The source made the active and inactive calls. Rule as the data show it: active = GI50 up to about 1.1 µM and inactive = higher.
Tests used:
Experiment in all cases: DTP human tumour cell line panel, 48 h
786-0 = system: 786-0
A498 = system: A498
A549 = system: A549
ACHN = system: ACHN
BT-549 = system: BT-549
CAKI-1 = system: CAKI-1
COLO 205 = system: COLO 205
DU-145 = system: DU-145
EKVX = system: EKVX
HCT-116 = system: HCT-116
HCT-15 = system: HCT-15
HL-60 = system: HL-60
HOP-62 = system: HOP-62
HOP-92 = system: HOP-92
HT-29 = system: HT-29
Hs-578T = system: Hs-578T
IGROV-1 = system: IGROV-1
K562 = system: K562
KM12 = system: KM12
LOX IMVI = system: LOX IMVI
M14 = system: M14
MCF7 = system: MCF7
MDA-MB-231 = system: MDA-MB-231
MDA-MB-435 = system: MDA-MB-435
MDA-N = system: MDA-N
MOLT-4 = system: MOLT-4
Malme-3M = system: Malme-3M
NCI-H226 = system: NCI-H226
NCI-H23 = system: NCI-H23
NCI-H460 = system: NCI-H460
NCI-H522 = system: NCI-H522
NCI/ADR-RES = system: NCI/ADR-RES
OVCAR-3 = system: OVCAR-3
OVCAR-4 = system: OVCAR-4
OVCAR-5 = system: OVCAR-5
OVCAR-8 = system: OVCAR-8
PC-3 = system: PC-3
RPMI-8226 = system: RPMI-8226
RXF 393 = system: RXF 393
SF-268 = system: SF-268
SF-295 = system: SF-295
SF-539 = system: SF-539
SK-MEL-28 = system: SK-MEL-28
SK-MEL-2 = system: SK-MEL-2
SK-MEL-5 = system: SK-MEL-5
SK-OV-3 = system: SK-OV-3
SN12C = system: SN12C
SNB-19 = system: SNB-19
SNB-75 = system: SNB-75
SR = system: SR
SW-620 = system: SW-620
T47D = system: T47D
TK-10 = system: TK-10
U-251 = system: U-251
UACC-257 = system: UACC-257
UACC-62 = system: UACC-62
UO-31 = system: UO-31
CCRF-CEM = system: CCRF-CEM

Oc1ccc(Cc2cc(Cl)cc(Cl)c2O)cc1Cl
GI50 (786-0): 20.3 µM (inactive)
GI50 (A498): 19.5 µM (inactive)
GI50 (A549): 19.1 µM (inactive)
GI50 (ACHN): 17.4 µM (inactive)
GI50 (BT-549): 18.8 µM (inactive)
GI50 (CAKI-1): 22.6 µM (inactive)
GI50 (COLO 205): 19 µM (inactive)
GI50 (DU-145): 10.1 µM (inactive)
GI50 (EKVX): 19.4 µM (inactive)
GI50 (HCT-116): 18.7 µM (inactive)
GI50 (HCT-15): 16.9 µM
GI50 (HL-60): 1.04 µM (active)
GI50 (HOP-62): 19.2 µM (inactive)
GI50 (HOP-92): 18.2 µM (inactive)
GI50 (HT-29): 20.1 µM (inactive)
GI50 (Hs-578T): 18 µM (inactive)
GI50 (IGROV-1): 17.9 µM (inactive)
GI50 (K562): 15.5 µM (inactive)
GI50 (KM12): 20 µM (inactive)
GI50 (LOX IMVI): 16.6 µM (inactive)
GI50 (M14): 15.7 µM (inactive)
GI50 (MCF7): 18.1 µM (inactive)
GI50 (MDA-MB-231): 18.6 µM (inactive)
GI50 (MDA-MB-435): 8.83 µM (inactive)
GI50 (MDA-N): 8.93 µM (inactive)
GI50 (MOLT-4): 20 µM (inactive)
GI50 (Malme-3M): 16.8 µM (inactive)
GI50 (NCI-H226): 21.1 µM (inactive)
GI50 (NCI-H23): 16.3 µM (inactive)
GI50 (NCI-H460): 17.8 µM (inactive)
GI50 (NCI-H522): 16.7 µM (inactive)
GI50 (NCI/ADR-RES): 18.3 µM (inactive)
GI50 (OVCAR-3): 18.7 µM (inactive)
GI50 (OVCAR-4): 23.3 µM (inactive)
GI50 (OVCAR-5): 18.4 µM (inactive)
GI50 (OVCAR-8): 19 µM (inactive)
GI50 (PC-3): 17.7 µM (inactive)
GI50 (RPMI-8226): 22.3 µM (inactive)
GI50 (RXF 393): 13.4 µM (inactive)
GI50 (SF-268): 16.6 µM (inactive)
GI50 (SF-295): 19 µM (inactive)
GI50 (SF-539): 17.1 µM (inactive)
GI50 (SK-MEL-28): 17.3 µM (inactive)
GI50 (SK-MEL-2): 15.5 µM (inactive)
GI50 (SK-MEL-5): 17.5 µM (inactive)
GI50 (SK-OV-3): 27.1 µM (inactive)
GI50 (SN12C): 15.1 µM (inactive)
GI50 (SNB-19): 16.9 µM (inactive)
GI50 (SNB-75): < 0.01 µM (active)
GI50 (SR): 14.2 µM (inactive)
GI50 (SW-620): 16.6 µM (inactive)
GI50 (T47D): 18.4 µM (inactive)
GI50 (TK-10): 16.3 µM (inactive)
GI50 (U-251): 19.2 µM (inactive)
GI50 (UACC-257): 15.9 µM (inactive)
GI50 (UACC-62): 14.7 µM (inactive)
GI50 (UO-31): 15.7 µM (inactive)

C1CNCCN2CCCNCCN(C1)CC2
GI50 (786-0): > 100 µM (inactive)
GI50 (A498): > 100 µM (inactive)
GI50 (A549): > 100 µM (inactive)
GI50 (ACHN): > 100 µM (inactive)
GI50 (BT-549): > 100 µM (inactive)
GI50 (CAKI-1): > 100 µM (inactive)
GI50 (CCRF-CEM): 2 µM (inactive)
GI50 (COLO 205): > 100 µM (inactive)
GI50 (DU-145): > 100 µM (inactive)
GI50 (EKVX): > 100 µM (inactive)
GI50 (HCT-116): > 100 µM (inactive)
GI50 (HCT-15): > 100 µM
GI50 (HOP-62): > 100 µM (inactive)
GI50 (HOP-92): > 100 µM (inactive)
GI50 (HT-29): > 100 µM (inactive)
GI50 (Hs-578T): > 100 µM (inactive)
GI50 (IGROV-1): > 100 µM (inactive)
GI50 (KM12): > 100 µM (inactive)
GI50 (LOX IMVI): > 100 µM (inactive)
GI50 (M14): > 100 µM (inactive)
GI50 (MCF7): > 100 µM (inactive)
GI50 (MDA-MB-231): > 100 µM (inactive)
GI50 (MDA-MB-435): > 100 µM (inactive)
GI50 (MDA-N): > 100 µM (inactive)
GI50 (MOLT-4): > 100 µM (inactive)
GI50 (Malme-3M): > 100 µM (inactive)
GI50 (NCI-H226): > 100 µM (inactive)
GI50 (NCI-H23): > 100 µM (inactive)
GI50 (NCI-H460): > 100 µM (inactive)
GI50 (NCI-H522): > 100 µM (inactive)
GI50 (NCI/ADR-RES): > 100 µM (inactive)
GI50 (OVCAR-3): > 100 µM (inactive)
GI50 (OVCAR-4): > 100 µM (inactive)
GI50 (OVCAR-5): > 100 µM (inactive)
GI50 (OVCAR-8): > 100 µM (inactive)
GI50 (PC-3): > 100 µM (inactive)
GI50 (RPMI-8226): > 100 µM (inactive)
GI50 (RXF 393): > 100 µM (inactive)
GI50 (SF-268): > 100 µM (inactive)
GI50 (SF-295): > 100 µM (inactive)
GI50 (SF-539): > 100 µM (inactive)
GI50 (SK-MEL-28): > 100 µM (inactive)
GI50 (SK-MEL-2): > 100 µM (inactive)
GI50 (SK-MEL-5): > 100 µM (inactive)
GI50 (SK-OV-3): > 100 µM (inactive)
GI50 (SN12C): > 100 µM (inactive)
GI50 (SNB-19): > 100 µM (inactive)
GI50 (SNB-75): > 100 µM (inactive)
GI50 (SR): > 100 µM (inactive)
GI50 (SW-620): > 100 µM (inactive)
GI50 (T47D): > 100 µM (inactive)
GI50 (TK-10): > 100 µM (inactive)
GI50 (U-251): > 100 µM (inactive)
GI50 (UACC-257): > 100 µM (inactive)
GI50 (UACC-62): > 100 µM (inactive)
GI50 (UO-31): > 100 µM (inactive)

C1CN2CCNCCN(CCN1)CC2
GI50 (786-0): > 100 µM (inactive)
GI50 (A498): > 100 µM (inactive)
GI50 (A549): > 100 µM (inactive)
GI50 (ACHN): > 100 µM (inactive)
GI50 (BT-549): > 100 µM (inactive)
GI50 (CAKI-1): > 100 µM (inactive)
GI50 (CCRF-CEM): 3.9 µM (inactive)
GI50 (COLO 205): > 100 µM (inactive)
GI50 (DU-145): > 100 µM (inactive)
GI50 (EKVX): > 100 µM (inactive)
GI50 (HCT-116): > 100 µM (inactive)
GI50 (HCT-15): > 100 µM
GI50 (HL-60): 20.9 µM (inactive)
GI50 (HOP-62): > 100 µM (inactive)
GI50 (HOP-92): > 100 µM (inactive)
GI50 (HT-29): > 100 µM (inactive)
GI50 (Hs-578T): > 100 µM (inactive)
GI50 (IGROV-1): > 100 µM (inactive)
GI50 (K562): > 100 µM (inactive)
GI50 (KM12): > 100 µM (inactive)
GI50 (LOX IMVI): > 100 µM (inactive)
GI50 (M14): > 100 µM (inactive)
GI50 (MCF7): > 100 µM (inactive)
GI50 (MDA-MB-231): > 100 µM (inactive)
GI50 (MDA-MB-435): > 100 µM (inactive)
GI50 (MDA-N): > 100 µM (inactive)
GI50 (MOLT-4): > 100 µM (inactive)
GI50 (Malme-3M): > 100 µM (inactive)
GI50 (NCI-H226): > 100 µM (inactive)
GI50 (NCI-H23): > 100 µM (inactive)
GI50 (NCI-H460): > 100 µM (inactive)
GI50 (NCI-H522): > 100 µM (inactive)
GI50 (NCI/ADR-RES): > 100 µM (inactive)
GI50 (OVCAR-3): > 100 µM (inactive)
GI50 (OVCAR-4): > 100 µM (inactive)
GI50 (OVCAR-5): > 100 µM (inactive)
GI50 (OVCAR-8): > 100 µM (inactive)
GI50 (PC-3): > 100 µM (inactive)
GI50 (RPMI-8226): > 100 µM (inactive)
GI50 (RXF 393): > 100 µM (inactive)
GI50 (SF-268): > 100 µM (inactive)
GI50 (SF-295): > 100 µM (inactive)
GI50 (SF-539): > 100 µM (inactive)
GI50 (SK-MEL-28): > 100 µM (inactive)
GI50 (SK-MEL-2): > 100 µM (inactive)
GI50 (SK-MEL-5): > 100 µM (inactive)
GI50 (SK-OV-3): > 100 µM (inactive)
GI50 (SN12C): > 100 µM (inactive)
GI50 (SNB-19): > 100 µM (inactive)
GI50 (SNB-75): > 100 µM (inactive)
GI50 (SR): > 100 µM (inactive)
GI50 (SW-620): > 100 µM (inactive)
GI50 (T47D): > 100 µM (inactive)
GI50 (TK-10): > 100 µM (inactive)
GI50 (U-251): > 100 µM (inactive)
GI50 (UACC-257): > 100 µM (inactive)
GI50 (UACC-62): > 100 µM (inactive)
GI50 (UO-31): > 100 µM (inactive)

Reference: ChEMBL document CHEMBL1201862, “PubChem BioAssay data set” (2004)
